Results on 7 molecules are retold here after ChEMBL document CHEMBL2346526, “Synthesis and antiproliferative activity of C-homo-lactam derivatives of 7-deoxycholic acid” (Bioorg Med Chem Lett, 2013).

Common to all, as to assay type: functional, cell-based
Experiment [1] is described as follows: Cytotoxicity against GNE 2 cells (unknown origin) after 72 hrs by MTT assay. (In general: Tetrazolium dyes change colour on reduction, which living cells bring about.)
Experiment [2] can be described thus: Cytotoxicity against human SMMC-7404 cells after 72 hrs by MTT assay.
Experiment [3] can be described thus: Cytotoxicity against human Tu 686 cells after 72 hrs by MTT assay.
Experiment [4] in a line: Cytotoxicity against human SPC-A cells after 72 hrs by MTT assay.
Another experiment concerns HeLa. Nature of the experiment: Cytotoxicity against human HeLa cells after 72 hrs by MTT assay. To be noted: for pIC50: Homo sapiens, HeLa, 72 h, read-out: IC50; for IC50: hela.
Experiment [5] in a line: Cytotoxicity against human MGC7901 cells after 72 hrs by MTT assay.

pIC50: −log10 of the molar value.

In the case of `COC(=O)CC[C@@H](C)[C@H]1CC[C@H]2[C@@H]3CC[C@@H]4C[C@@H](O)CC[C@]4(C)[C@H]3CC(=O)N[C@]12C`, the IC50 (commonly the concentration needed to halve the response being measured) in experiment [1] was 168 µM; in experiment [2], > 200 µM; in experiment [3], > 200 µM; in experiment [4], > 200 µM; in experiment [5], > 200 µM. The pIC50 (in general, the IC50 on a negative log10 scale, so that one unit is a factor of ten) in the experiment on HeLa was 4.72.
Consider `CC(=O)O[C@H]1CC[C@@]2(C)[C@H](CC[C@@H]3[C@@H]2CC(=O)N[C@]2(C)[C@@H]([C@H](C)CCC(=O)N(C)C)CC[C@@H]32)C1`, for which the IC50 was 151 µM in experiment [1]; 168 µM in experiment [2]; 74.5 µM in experiment [3]; 130 µM in experiment [4]; > 200 µM with HeLa; 88.5 µM in experiment [5].
With `C[C@H](CCC(=O)O)[C@H]1CC[C@H]2[C@@H]3CC[C@@H]4CC(=O)CC[C@]4(C)[C@H]3CC(=O)N[C@]12C`, the IC50 is > 200 µM in experiment [1]; > 200 µM in experiment [2]; 16.7 µM in experiment [3]; > 200 µM in experiment [4]; > 200 µM in the experiment on HeLa; > 200 µM in experiment [5].
As to `C[C@H](CCC(=O)O)[C@H]1CC[C@H]2[C@@H]3CC[C@@H]4C[C@@H](O)CC[C@]4(C)[C@H]3CC(=O)N[C@]12C`, the IC50 is 168 µM in experiment [1]; > 200 µM in experiment [2]; 44.3 µM in experiment [3]; > 200 µM in experiment [4]; > 200 µM in experiment [5]. Also, the negative logarithm of the IC50 (pIC50) in the experiment on HeLa was 4.72.
For `COC(=O)CC[C@@H](C)[C@H]1CC[C@H]2[C@@H]3CC[C@@H]4C[C@@H](OC(C)=O)CC[C@]4(C)[C@H]3C/C(=N\O)[C@]12C`, the IC50 stood at 17.3 µM in experiment [1]; 15.6 µM in experiment [2]; 74.3 µM in experiment [3]; 13.5 µM in experiment [4]; 19.8 µM in experiment [5]. For the same molecule, the pIC50 in the experiment on HeLa is 4.83.
Consider `COC(=O)CC[C@@H](C)[C@H]1CC[C@H]2[C@@H]3CC[C@@H]4C[C@@H](OC(C)=O)CC[C@]4(C)[C@H]3CC(=O)N[C@]12C`, for which the 50% inhibitory concentration (IC50) is > 200 µM in experiment [1]; 62.3 µM in experiment [2]; 65.9 µM in experiment [3]; > 200 µM in experiment [4]; 80.7 µM in experiment [5]. Further, the pIC50 in the experiment with HeLa is 4.80.
On to `CC(=O)O[C@H]1CC[C@@]2(C)[C@H](CC[C@@H]3[C@@H]2CC(=O)N[C@]2(C)[C@@H]([C@H](C)CCC(=O)O)CC[C@@H]32)C1`, for which the IC50 in experiment [1] is 134 µM; in experiment [2], 99.3 µM; in experiment [3], 19.8 µM; in experiment [4] it was 185 µM; with HeLa, > 200 µM; in experiment [5], 185 µM.
